# Reference: patent US9351955B2, “Compounds and pharmaceutical compositions thereof for the treatment of cystic fibrosis” (Galapagos NV, priority 2013, dated 2016)
# pEC50: −log10 of the molar value. Read-outs that look alike come from different tables or passages of the source.
# Assays:
# Format in all cases: cell-based
# CFTR ΔF508 mutant [1] = target: T1, CFTR ΔF508 mutant (Homo sapiens, UniProt P13569, DEL508-508); test: YFP-halide influx assay for the CFTR-ΔF508 mutation (96 well, CFBE41o- cells); settings: read-out: EC50 measured by YFP-halide influx assay for the CFTR-ΔF508
# T1 construct: expressed in transfected cells; host or cells: CFBE41o- (adenoviral transduction)
# Text: 6.1. YFP-Halide Influx Assay for the CFTR-ΔF508 Mutation
# (§1) The YFP halide influx assay measures the functionality of the cystic fibrosis Transmembrane Conductance regulator (CFTR) channels in the cystic fibrosis bronchial epithelium cell line CFBE41o-. The assay is used to evaluate the capacity of compounds to increase the open probability of existing CFTR channels in the membrane. It makes use of the observation that the yellow fluorescent protein (YFP) variant YFP H148Q, I152L has its fluorescence substantially quenched by halide ions like Cl^− and I^−. (Galietta et al., 2001; Nagai et al., 2002)
# For this purpose, CFBE410-cells are seeded in 96 well plates (6000 CFBE cells/well). One day after seeding, the CFBE cells are transduced with adenoviral vectors that direct the expression of the CFTR ΔF508 mutant and of the YFP reporter. Cells are incubated at 27° C., 5% CO2 for 24 hours so as to allow for the proper folding and migration to the membrane of the CFTR channel or treated with a CFTR modulator during 24 h at 37° C.
# (§2) The F induced quenching of fluorescence is recorded immediately after injection of I^− for 7 seconds. The capacity of a compound to increase the channel opening is directly correlated with the decrease in fluorescence, and is expressed as (1-(fluorescence after 7 seconds (F)/fluorescence before injection (F0))) and an EC50 can be derived from a (1−F/F0) vs compound concentration plot.
# CFTR ΔF508 mutant [2] = target: T1, CFTR ΔF508 mutant; test: YFP-halide influx assay for the CFTR-ΔF508 mutation (384 well, CFBE41o- cells, FDSS/μCell); settings: forskolin 10.67 μM, fluorescence after 36 seconds, read-out: EC50 measured by YFP-halide influx assay for the CFTR-ΔF508
# Procedure, shortened: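 CFBE41o- cells were adenovirally transduced with ΔF508 CFTR and the YFP H148Q/I152L reporter. Cells were then held 24 h at 27 °C or treated 24 h at 37 °C with a CFTR modulator. Iodide-induced quench was recorded for 2 min, and EC50 was derived from 1−F/F0 at 36 s against compound concentration.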
# CFTR G551D mutant = target: T2, CFTR G551D mutant (Homo sapiens, UniProt P13569, G551D); test: YFP-halide influx assay for the CFTR-G551D mutation (HEK293 cells); settings: read-out: EC50 measured by YFP-halide influx assay for the CFTR-G551D
# T2 construct: expressed in transfected cells; host or cells: HEK293 (reverse transfection with plasmids)
# Text: 6.3. YFP-Halide Influx Assay for the CFTR-G551D Mutation
# as §1, with “channels.” for “channels in the cystic fibrosis bronchial epithelium cell line CFBE41o-.”, “channel opening” for “open probability”, “existing mutant” for “existing”, “I152L, F47L” for “I152L”, “2001)” for “2001; Nagai et al., 2002)”
# For this purpose, HEK293-cells are seeded in 96 well plates. During seeding, the cells are reverse-transfected with plasmid vectors that direct the expression of the CFTR G551D mutant and of the YFP reporter. Cells are incubated at 37° C., 5% CO2 for 24 hours so as to allow for sufficient expression of the CFTR protein.
# as §2, with “I^−-induced” for “F induced”, “(1−(fluorescence” for “(1-(fluorescence”
# [3] = compounds of the invention, 96 well, forskolin 10.67 μM
# [4] = HEK293 cells expressing CFTR G551D and YFP reporter, forskolin 10.67 μM
# T2 sequence (P13569 whole entry G551D): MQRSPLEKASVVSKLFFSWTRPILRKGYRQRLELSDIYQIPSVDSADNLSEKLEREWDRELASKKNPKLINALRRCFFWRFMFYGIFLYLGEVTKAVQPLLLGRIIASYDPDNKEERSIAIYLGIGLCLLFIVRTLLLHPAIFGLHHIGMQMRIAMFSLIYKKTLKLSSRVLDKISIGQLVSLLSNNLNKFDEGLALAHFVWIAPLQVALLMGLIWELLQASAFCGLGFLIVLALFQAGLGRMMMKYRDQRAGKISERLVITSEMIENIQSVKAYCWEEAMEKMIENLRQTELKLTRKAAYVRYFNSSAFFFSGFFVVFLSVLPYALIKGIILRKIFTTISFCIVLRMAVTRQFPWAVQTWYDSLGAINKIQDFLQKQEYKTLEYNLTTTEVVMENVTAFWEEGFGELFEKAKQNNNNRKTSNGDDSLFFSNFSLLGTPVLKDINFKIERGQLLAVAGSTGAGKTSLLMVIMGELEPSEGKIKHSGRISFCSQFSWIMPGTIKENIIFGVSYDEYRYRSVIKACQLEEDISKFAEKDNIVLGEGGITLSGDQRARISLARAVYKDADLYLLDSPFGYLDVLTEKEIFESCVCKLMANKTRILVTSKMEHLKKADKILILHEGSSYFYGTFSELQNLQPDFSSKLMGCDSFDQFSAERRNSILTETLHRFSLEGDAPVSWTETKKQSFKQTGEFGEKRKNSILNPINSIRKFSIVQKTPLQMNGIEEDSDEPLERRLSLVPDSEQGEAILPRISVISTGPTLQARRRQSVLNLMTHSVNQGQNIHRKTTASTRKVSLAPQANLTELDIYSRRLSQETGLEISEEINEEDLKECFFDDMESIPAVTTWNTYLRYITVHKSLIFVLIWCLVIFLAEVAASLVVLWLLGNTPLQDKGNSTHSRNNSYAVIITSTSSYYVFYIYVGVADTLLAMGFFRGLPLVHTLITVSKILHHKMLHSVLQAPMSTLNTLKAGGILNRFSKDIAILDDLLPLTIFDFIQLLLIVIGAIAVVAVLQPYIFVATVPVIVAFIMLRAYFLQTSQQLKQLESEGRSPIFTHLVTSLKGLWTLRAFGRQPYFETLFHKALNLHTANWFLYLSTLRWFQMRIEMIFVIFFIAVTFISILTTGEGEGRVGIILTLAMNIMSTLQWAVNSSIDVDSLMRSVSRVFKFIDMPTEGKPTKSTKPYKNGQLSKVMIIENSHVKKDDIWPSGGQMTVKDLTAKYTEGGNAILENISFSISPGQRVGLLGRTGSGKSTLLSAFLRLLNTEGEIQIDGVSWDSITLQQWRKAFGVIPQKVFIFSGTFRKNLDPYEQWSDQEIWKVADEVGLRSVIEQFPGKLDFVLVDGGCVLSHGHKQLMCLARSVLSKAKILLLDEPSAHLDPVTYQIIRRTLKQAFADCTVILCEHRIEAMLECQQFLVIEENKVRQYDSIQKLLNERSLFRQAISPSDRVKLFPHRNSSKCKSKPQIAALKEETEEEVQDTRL
# T1 sequence (P13569 with tags, fused parts or gaps DEL508-508): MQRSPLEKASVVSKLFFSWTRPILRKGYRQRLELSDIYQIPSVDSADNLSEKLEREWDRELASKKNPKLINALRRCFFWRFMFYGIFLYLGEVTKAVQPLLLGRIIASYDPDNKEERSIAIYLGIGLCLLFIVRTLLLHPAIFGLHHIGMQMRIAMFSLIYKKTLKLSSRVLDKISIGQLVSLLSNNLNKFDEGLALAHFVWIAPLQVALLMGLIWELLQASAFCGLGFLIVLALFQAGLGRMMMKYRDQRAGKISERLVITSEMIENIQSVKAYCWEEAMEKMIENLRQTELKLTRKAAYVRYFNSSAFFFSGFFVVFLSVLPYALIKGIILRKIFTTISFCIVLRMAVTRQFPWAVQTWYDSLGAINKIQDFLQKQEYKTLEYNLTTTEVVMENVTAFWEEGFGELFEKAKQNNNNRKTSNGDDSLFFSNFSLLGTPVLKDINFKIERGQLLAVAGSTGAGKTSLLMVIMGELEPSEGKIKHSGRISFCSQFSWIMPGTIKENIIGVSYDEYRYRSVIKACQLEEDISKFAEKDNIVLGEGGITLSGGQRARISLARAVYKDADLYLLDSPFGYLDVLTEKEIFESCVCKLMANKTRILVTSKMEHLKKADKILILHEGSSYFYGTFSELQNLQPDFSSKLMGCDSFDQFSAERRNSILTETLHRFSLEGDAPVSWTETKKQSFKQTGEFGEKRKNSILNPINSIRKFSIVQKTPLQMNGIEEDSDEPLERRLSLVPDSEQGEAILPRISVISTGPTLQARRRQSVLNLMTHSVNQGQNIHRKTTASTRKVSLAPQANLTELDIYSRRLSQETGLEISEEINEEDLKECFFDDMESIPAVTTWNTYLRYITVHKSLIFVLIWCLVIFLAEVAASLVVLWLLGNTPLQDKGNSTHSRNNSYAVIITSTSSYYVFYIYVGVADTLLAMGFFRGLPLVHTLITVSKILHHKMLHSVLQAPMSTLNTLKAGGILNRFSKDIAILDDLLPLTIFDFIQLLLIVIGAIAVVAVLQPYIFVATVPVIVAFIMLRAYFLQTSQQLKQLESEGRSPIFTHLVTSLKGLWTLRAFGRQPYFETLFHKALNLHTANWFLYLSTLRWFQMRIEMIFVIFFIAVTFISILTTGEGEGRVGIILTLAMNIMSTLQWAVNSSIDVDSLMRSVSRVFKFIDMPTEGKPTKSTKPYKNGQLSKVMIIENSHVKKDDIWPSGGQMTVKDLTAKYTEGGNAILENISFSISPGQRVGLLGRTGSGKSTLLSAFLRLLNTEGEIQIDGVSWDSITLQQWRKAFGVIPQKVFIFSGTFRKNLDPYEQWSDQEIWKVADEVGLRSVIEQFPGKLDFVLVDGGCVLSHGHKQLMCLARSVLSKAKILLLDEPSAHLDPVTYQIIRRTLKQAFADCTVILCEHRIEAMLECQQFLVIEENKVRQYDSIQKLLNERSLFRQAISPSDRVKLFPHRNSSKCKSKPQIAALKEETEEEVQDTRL
Structure (SMILES),pEC50 (CFTR ΔF508 mutant [1]; comparative compounds),pEC50 (CFTR ΔF508 mutant [1]; [3]),pEC50 (CFTR ΔF508 mutant [2]),pEC50 (CFTR G551D mutant; [4]),"pEC50 (CFTR G551D mutant; comparative compounds, HEK293 cells)"
"NC(=O)c1c(NC(=O)c2ccccc2O)sc2c1CCNC2 [C, 2-(2-hydroxybenzamido)-4,5,6,7-tetrahydrothieno[2,3-c]pyridine-3-carboxamide, reference compound]",< 5.00,–,–,–,–
"CC1(C)Cc2c(sc(NC(=O)c3ccccc3F)c2C(N)=O)C(C)(C)O1 [Compound 1, 2-(2-fluorobenzamido)-5,5,7,7-tetramethyl-5,7-dihydro-4H-thieno[2,3-c]pyran-3-carboxamide]",–,7.92,7.18,6.55,–
"CC1(C)Cc2c(sc(NC(=O)c3ccccc3O)c2C(N)=O)C(C)(C)O1 [Compound 3, 2-(2-hydroxybenzamido)-5,5,7,7-tetramethyl-5,7-dihydro-4H-thieno[2,3-c]pyran-3-carboxamide]",–,8.36,8.19,6.79,–
"CC1(C)Cc2c(sc(NC(=O)c3ccccc3C(F)(F)F)c2C(N)=O)C(C)(C)O1 [Compound 5, 5,5,7,7-tetramethyl-2-(2-(trifluoromethyl)benzamido)-5,7-dihydro-4H-thieno[2,3-c]pyran-3-carboxamide]",–,7.20,7.32,6.12,–
"CC1(C)Cc2c(sc(NC(=O)c3ccc(F)cc3C(F)(F)F)c2C(N)=O)C(C)(C)O1 [Compound 7, 2-(4-fluoro-2-(trifluoromethyl)benzamido)-5,5,7,7-tetramethyl-5,7-dihydro-4H-thieno[2,3-c]pyran-3-carboxamide]",–,7.22,7.15,5.96,–
"CC1(C)Cc2c(sc(NC(=O)c3ccc(F)cc3F)c2C(N)=O)C(C)(C)O1 [Compound 8, 2-(2,4-difluorobenzamido)-5,5,7,7-tetramethyl-5,7-dihydro-4H-thieno[2,3-c]pyran-3-carboxamide]",–,7.64,7.56,6.51,–
"Cc1cc(C(=O)Nc2sc3c(c2C(N)=O)CC(C)(C)OC3(C)C)[nH]n1 [Compound 11, N-(3-carbamoyl-5,5,7,7-tetramethyl-5,7-dihydro-4H-thieno[2,3-c]pyran-2-yl)-5-methyl-1H-pyrazole-3-carboxamide]",–,7.57,7.90,6.23,–
"COC(=O)C1(C(=O)Nc2sc3c(c2C(N)=O)CC(C)(C)OC3(C)C)CC1 [Compound 12, methyl 1-(3-carbamoyl-5,5,7,7-tetramethyl-5,7-dihydro-4H-thieno[2,3-c]pyran-2-ylcarbamoyl)cyclopropanecarboxylate]",–,6.02,6.71,5.48,–
"CC1(C)Cc2c(sc(NC(=O)c3cc(C(C)(C)C)[nH]n3)c2C(N)=O)C(C)(C)O1 [Compound 16, 5-tert-butyl-N-(3-carbamoyl-5,5,7,7-tetramethyl-5,7-dihydro-4H-thieno[2,3-c]pyran-2-yl)-1H-pyrazole-3-carboxamide]",–,7.60,7.04,5.28,–
"CC1(C)Cc2c(sc(NC(=O)c3nnc[nH]3)c2C(N)=O)C(C)(C)O1 [Compound 18, N-(3-carbamoyl-5,5,7,7-tetramethyl-5,7-dihydro-4H-thieno[2,3-c]pyran-2-yl)-1H-1,2,4-triazole-3-carboxamide]",–,6.08,6.33,5.48,–
"CC(O)C(=O)Nc1sc2c(c1C(N)=O)CC(C)(C)OC2(C)C (stereo not drawn) [Compound 22, 2-(2-hydroxypropanamido)-5,5,7,7-tetramethyl-5,7-dihydro-4H-thieno[2,3-c]pyran-3-carboxamide]",–,6.66,7.08,–,–
"CC1(C)Cc2c(sc(NC(=O)c3cccc(F)n3)c2C(N)=O)C(C)(C)O1 [Compound 24, N-(3-carbamoyl-5,5,7,7-tetramethyl-5,7-dihydro-4H-thieno[2,3-c]pyran-2-yl)-6-fluoropicolinamide]",–,6.50,6.63,–,–
"CC1(C)Cc2c(sc(NC(=O)c3ccccc3-c3ncn[nH]3)c2C(N)=O)C(C)(C)O1 [Compound 26, 2-(2-(1H-1,2,4-triazol-5-yl)benzamido)-5,5,7,7-tetramethyl-5,7-dihydro-4H-thieno[2,3-c]pyran-3-carboxamide]",–,5.90,–,–,–
"CC1(C)Cc2c(sc(NC(=O)C3CNC(=O)C3)c2C(N)=O)C(C)(C)O1 (stereo not drawn) [Compound 29, N-(3-carbamoyl-5,5,7,7-tetramethyl-5,7-dihydro-4H-thieno[2,3-c]pyran-2-yl)-5-oxopyrrolidine-3-carboxamide]",–,5.00,–,–,–
"CN1CCc2[nH]nc(C(=O)Nc3sc4c(c3C(N)=O)CC(C)(C)OC4(C)C)c2C1 [Compound 31, N-(3-carbamoyl-5,5,7,7-tetramethyl-5,7-dihydro-4H-thieno[2,3-c]pyran-2-yl)-5-methyl-4,5,6,7-tetrahydro-1H-pyrazolo[4,3-c]pyridine-3-carboxamide]",–,6.45,6.45,–,–
"CC(=O)OC1(C(=O)Nc2sc3c(c2C(N)=O)CC(C)(C)OC3(C)C)CCOCC1 [Compound 41, 4-(3-carbamoyl-5,5,7,7-tetramethyl-5,7-dihydro-4H-thieno[2,3-c]pyran-2-ylcarbamoyl)tetrahydro-2H-pyran-4-yl acetate]",–,5.76,6.22,–,–
"CC1(C)Cc2c(sc(NC(=O)c3cncs3)c2C(N)=O)C(C)(C)O1 [Compound 134, N-(3-carbamoyl-5,5,7,7-tetramethyl-4H-thieno[2,3-c]pyran-2-yl)thiazole-5-carboxamide]",–,–,7.10,5.69,–
"Cc1ncoc1C(=O)Nc1sc2c(c1C(N)=O)CC(C)(C)OC2(C)C [Compound 135, N-(3-carbamoyl-5,5,7,7-tetramethyl-4H-thieno[2,3-c]pyran-2-yl)-4-methyl-oxazole-5-carboxamide]",–,–,6.86,5.69,–
"Cn1ncc(C(=O)Nc2sc3c(c2C(N)=O)CC(C)(C)OC3(C)C)c1C(F)(F)F [Compound 137, N-(3-carbamoyl-5,5,7,7-tetramethyl-4H-thieno[2,3-c]pyran-2-yl)-1-methyl-5-(trifluoromethyl)pyrazole-4-carboxamide]",–,–,6.89,5.58,–
"CCCCc1ccc(C(=O)Nc2sc3c(c2C(N)=O)CC(C)(C)OC3(C)C)c(=O)[nH]1 [Compound 139, 6-butyl-N-(3-carbamoyl-5,5,7,7-tetramethyl-4H-thieno[2,3-c]pyran-2-yl)-2-oxo-1H-pyridine-3-carboxamide]",–,–,7.24,6.24,–
"Cc1cnc(C(=O)Nc2sc3c(c2C(N)=O)CC(C)(C)OC3(C)C)cn1 [Compound 141, N-(3-carbamoyl-5,5,7,7-tetramethyl-4H-thieno[2,3-c]pyran-2-yl)-5-methyl-pyrazine-2-carboxamide]",–,–,7.00,5.79,–
"Cc1ccc(C(=O)Nc2sc3c(c2C(N)=O)CC(C)(C)OC3(C)C)cn1 [Compound 143, N-(3-carbamoyl-5,5,7,7-tetramethyl-4H-thieno[2,3-c]pyran-2-yl)-6-methyl-pyridine-3-carboxamide]",–,–,6.81,5.57,–
"CC1(C)Cc2c(sc(NC(=O)[C@](C)(O)C(F)(F)F)c2C(N)=O)C(C)(C)O1 [Compound 152, 5,5,7,7-tetramethyl-2-[[(2S)-3,3,3-trifluoro-2-hydroxy-2-methyl-propanoyl]amino]-4H-thieno[2,3-c]pyran-3-carboxamide]",–,–,7.92,5.66,–
"NC(=O)c1c(NC(=O)c2ccccc2O)sc2c1CCOC2 [D, 2-(2-hydroxybenzamido)-5,7-dihydro-4H-thieno[2,3-c]pyran-3-carboxamide, reference compound]",6.81,–,–,–,< 5.00
